Measurements: paper PMC7570852, “Ruthenium(II)/(III) DMSO-Based Complexes of 2-Aminophenyl Benzimidazole with In Vitro and In Vivo Anticancer Activity” (Molecules, 2020)
≈ marks a conversion by molar mass, not a printed value. Where “and” joins values, the source holds several entries; their conditions need not be identical. Equal entries are not always repeated. Where two headings read alike, the source gives them in different places.

Legend:
[1] = system: human breast cancer (MCF7) cells; assay: MTT cell viability assay, MCF7; assay type: cell-based; conditions: for IC50: read-out: IC50 MCF-7
Protocol: (§1) The cytotoxic effect of the Hapbim ligand and its complexes (1) and (2) on human breast cancer (MCF7), human colorectal cancer (Caco2), and human normal liver (THLE-2) cell lines was evaluated by the MTT assay. The cells were cultured in a 96-well plate (1 × 10^4 cells/well, 100 μL/well) containing DMEM medium provided with 10% fetal bovine serum, and 1% penicillin/streptomycin. Then, the cells were incubated at 37 °C for 24 h in a CO2 incubator under 5% CO2, 95% air until reaching a confluence of 70–80%. A 20 μL volume of each compound at different concentrations (from 5 to 400 μM for the cancer cell and from 600 to 1000 μM for the normal cells) was added and the cells were re-incubated for a further 24 h. After the incubation period, the cells were incubated again with 5 mg/mL of MTT for 4 h and then the medium was replaced with 100 μL DMSO and vortexed for 20 min. Finally, the absorbance was recorded at 570 nm using the microplate reader. […] To calculate the cell inhibition percentage, the following equation was used:% Cell inhibition = 100 − % cell viability ((At − Ab)/(Ac − Ab)) × 100%)(4) where At is the absorbance value of tested compound; Ab is the absorbance value of blank; Ac is the absorbance value of the control.

[2] = system: human colorectal cancer (Caco2) cells; assay: MTT cell viability assay, Caco2; assay type: cell-based; conditions: for Therapeutic index: IC50 of THLE-2 cell/IC50 of Caco2: in vitro
Protocol: as §1

[3] = system: Ehrlich ascites carcinoma (EAC) cells; parameters: method as in PMID 28599251; conditions: literature comparison; cited from earlier work
CT DNA (EB-DNA adduct) = assay: Ethidium bromide (EB-DNA) competitive fluorescence assay; assay type: binding, calf; conditions: [DNA] = [EB] = 5 μM
Protocol: The binding affinity of the metal complexes towards CT DNA was evaluated using competitive fluorescence studies. CT DNA pretreated with ethidium bromide (EB) ([DNA] = [EB] = 5 μM) in Tris-HCl/NaCl buffer (pH = 7.2) was incubated with the complexes in concentrations of 0–90 μM. […] The quenching of EB-DNA adduct fluorescence was followed by monitoring the emission spectra in the wavelength range of 530–650 nm. Upon addition of the metal complexes to the EB-DNA adduct, the quenching binding constant (Kq) at λ = 585 nm is determined from the Stern-Volmer Equation (2):I0/I = 1 + Kq[Q](2) where I0 and I are the fluorescence intensities of EB-DNA in the […] of the metal complexes, respectively, [Q] is the concentration of the tested compounds, and Kq is the quenching constant calculated from the slope of the straight line obtained from plotting Io/I vs. [Q]. In addition, the apparent binding constant can be calculated from Equation (3):KEB[EB] = Kapp[Q](3) where KEB = 1 × 10^7 M^−1 [EB] is the ethidium bromide concentration (5 μM) and [Q] is the concentration of the quencher that provides a 50% intensity reduction of the initial EB-DNA adduct.

[4] = Solution stability by UV-Vis spectroscopy; assay type: physicochemical; conditions: 4% DMSO, 96% PBS, pH 7.4, over 24 h
Protocol: Stability studies of complexes (1) and (2) were carried out by UV-Vis spectroscopy in the 200–900 nm range. […] The electronic spectra for the solutions were measured over 24 h.

Cyclic voltammetry = assay type: physicochemical; conditions: 10^−3 M in CH2Cl2/DMSO, 0.1 M (Bu4N)PF6, scan rate 50 mVs^−1
Protocol: Elemental analyses (C, H, N) were performed by the Microanalysis unit in the Department of Chemistry at Simon Fraser University. Infrared spectra (FTIR) were performed on a JASCO 4100 FTIR spectrophotometer in the 4000–400 cm^−1 range using a KBr disc. NMR (^1H and ^13C) spectra were recorded in DMSO-d6 solvent using a Bruker 400 MHz instrument. The 2D NMR analysis (^1H–^1H COSY) was performed on a Jeol 500 MHz NMR, at Mansoura University. ESI/APCI HRMS data were acquired on a Thermo Scientific Exactive Plus Orbitrap mass spectrometer. Electronic spectra (in DMSO, 200–900 nm) were measured on a JASCO 630 V spectrophotometer. Emission spectra of the complexes were measured on a Jenway model 6285 spectrofluorimeter for excitation and emission spectra, 200–700 nm. The magnetic susceptibility of the complexes was measured on a Johnson Matthey magnetic susceptibility balance. […] A microplate reader (StatFax-2100, Awareness Technology, Inc., Palm City, FA, USA), Attune flow cytometer (Applied Biosystems, Foster City, CA, USA), Quawell nanodrop Q5000 (San Jose, CA, USA), StepOnePlus real time PCR system (Applied Biosystems, Foster City, CA, USA), and CO2 incubator (NuAire In-Vitro Cell, Plymouth, MN, USA) were used in biological studies.

Nc1ccccc1-c1nc2ccccc2[nH]1 [Hapbim, 2-aminophenyl benzimidazole]
IC50 ([1]; Homo sapiens, MCF7, 24 h): 61 µg/mL and 290 µM
IC50 ([2]; Homo sapiens, Caco-2, MTT, 24 h): 80 µg/mL and 380 µM
Therapeutic index: IC50 of THLE-2 cell/IC50 of Caco2 [2]: 14.2

CN(Cc1cnc2nc(N)nc(N)c2n1)c1ccc(C(=O)N[C@@H](CCC(=O)O)C(=O)O)cc1 [methotrexate]
IC50 against EAC cells [3]: 98 ± 2 µg/mL (≈ 216 µM)

[Ru(II)Cl2(DMSO)2(Hapbim)] [(1)]
Kapp (apparent binding constant) (CT DNA (EB-DNA adduct); KEB = 1 × 10^7 M^−1): 1.08 ± 0.11 × 10^7 M^−1
Kq (quenching constant) (CT DNA (EB-DNA adduct); Stern-Volmer, 585 nm): 1.96 ± 0.04 × 10^3 M^−1
IC50 MCF-7 ([1]; 24 h): 170 ± 10 µg/mL
IC50 ([1]; 24 h): 320 ± 20 µM
IC50 ([2]; MTT, 24 h): 290 ± 20 µM
IC50 Caco2 ([2]; MTT, 24 h): 155 ± 9 µg/mL
Therapeutic index: IC50 of THLE-2 cell/IC50 of Caco2 [2]: 6.4
solution stability (UV-Vis spectral change) [4]: remain relatively unchanged over the first two hours
E1/2 (Ru(II)/Ru(III) redox couple) (Cyclic voltammetry): 615 mV

N.N.[Cl][Pt][Cl] [Cisplatin, reference compound]
IC50 MCF-7 ([1]; 24 h): 22 ± 1 µg/mL
IC50 ([1]; 24 h): 73 ± 5 µM
